Results on 13 compounds are retold here after patent US20230234936A1, “COMPOUND FOR TARGETING AND DEGRADING PROTEIN, AND PREPARATION METHOD THEREFOR AND USE THEREOF” (SHANGHAI LEADINGTAC PHARMACEUTICAL CO., LTD., priority 2020, published 2023).

The structures appear in SMILES notation.

One experiment concerns the target T1, IRAK4 kinase (Homo sapiens, UniProt Q9NWZ3).
T1 sequence (Q9NWZ3 1-460): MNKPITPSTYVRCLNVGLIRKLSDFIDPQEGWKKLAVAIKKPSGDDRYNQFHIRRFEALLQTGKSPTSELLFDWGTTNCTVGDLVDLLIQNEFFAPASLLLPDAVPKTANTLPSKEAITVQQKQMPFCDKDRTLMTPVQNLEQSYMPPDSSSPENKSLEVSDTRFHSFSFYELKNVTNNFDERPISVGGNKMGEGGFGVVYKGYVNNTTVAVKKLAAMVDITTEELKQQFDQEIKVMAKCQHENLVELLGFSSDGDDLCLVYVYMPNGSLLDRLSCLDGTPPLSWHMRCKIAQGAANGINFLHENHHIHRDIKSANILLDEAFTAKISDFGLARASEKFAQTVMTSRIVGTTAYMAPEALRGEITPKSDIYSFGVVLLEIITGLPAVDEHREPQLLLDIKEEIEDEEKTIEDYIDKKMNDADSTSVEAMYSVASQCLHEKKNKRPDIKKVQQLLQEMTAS
The experiment is described as follows: IRAK4 kinase activity test (KinEASE-STK S1 HTRF kit). Format: biochemical. The note with it: 2.5 nM kinase, 1 μM biotinylated polypeptide substrate, 7 μM ATP, 37° C. 120 min. As to the method: KinEASE-STK S1 serine/threonine kinase kit (Cisbio) was used to detect the inhibitory effect of the compound on IRAK4 kinase activity. The specific method was: the compound was dissolved in dimethyl sulfoxide, and then it was diluted with the buffer solution of the kit by equal gradient to make the final concentration range of the tested compound in the reaction system 10000 nM-0.038 nM, then 2.5 nM kinase, 1 μM biotinylated polypeptide substrate and 7 μM adenosine triphosphate (ATP) were added in sequence and incubated at 37° C. for 120 min. Subsequently, anti-phosphorylated serine/threonine antibody coupled with europium element compound and modified XL665 streptavidin were added to the reaction system to terminate the reaction. After incubating at room temperature for 1 h, the fluorescence intensity of each well at the emission wavelength of 620 nm and 665 nm and the excitation wavelength of 337 nm was determined in HTRF mode on the microplate reader EnVision(PerkinElmer), the ratio value was calculated using the formula Ratio=(665 nm/620 nm)×10^4. By comparing with the fluorescence intensity ratio of the control group, the inhibition rate of the compound at each concentration was calculated, and then the IC50 value of the compound was obtained by fitting the nonlinear curve with the logarithmic concentration-inhibition rate by GraphPad Prism 7.
For orientation: TR-FRET usually uses a lanthanide donor and a delayed reading to cut background.

Experiment [1] has as its target T2, IRAK4 protein in THP-1 cells (Homo sapiens, UniProt Q9NWZ3).
T2 construct: endogenous in cells; host or cells: THP-1
T2 sequence (Q9NWZ3 1-460): T1 sequence (Q9NWZ3 1-460)
The experiment is described as follows: Degradation of IRAK4 in THP-1 cells (Western blot). Format: cell-based. The note with it: 24 hours, compound 1-3000 nM. As to the method: Each well of the 24-well cell culture plate was inoculated with 0.95 mL THP-1 cells (stem cell bank of Chinese academy of sciences) with a cell density of 5×10^5 cells/well. The cell plate was placed in a 5% carbon dioxide incubator and cultured overnight at 37° C., then 50 μL compound in dimethyl sulfoxide was added. The final concentration of the compound was in the range of 1-3000 nM. After continuous cultivation for 24 hours, the cells were collected into a 1.5 mL centrifuge tube, centrifuged at 1000 rpm and 4° C. for 5 minutes. Cell precipitation was cleaned twice with 1-DPBS, resuspended cells were lysed with 200 μL lysate (cell lysate was Western and IP cell lysate (Beyotime), supplemented with 1 mM mixture of phenylmethylsulfonyl fluoride and protease inhibitor (Beyotime)), left on ice for 30 minutes, then centrifuged at 14000 g at 4° C. for 10 minutes, and the supernatant was taken to detect IRAK4 protein level by Western blot.
Western blot method: The total protein concentration in the supernatant of cell lysis was determined by BCA protein quantitative kit (Tiangen). According to the concentration of total protein detected by BCA, the supernatant was adjusted to 0.2 μg/μL with PBS and 5× SDS-PAGE protein loading buffer (Beyotime), bathed in water at 100° C. for 10 minutes, then placed in ice bath for 5 minutes, centrifuged at 14000 g and 4° C. for 5 minutes, and then collected as WB loading sample. Prefabricated glue (KeyGEN) was used for protein electrophoresis with a loading amount of 10 μL (total protein 2 μg). After Tris-MOPS-SDS electrophoresis solution (Adamas), 120V constant pressure electrophoresis was performed. After electrophoresis, the protein on the adhesive strip was transferred to PVDF membrane with a constant current of […] for 50 minutes. After the membrane was transferred, the membrane was placed in 1×QuickBlock blocking buffer (Beyotime) and incubated for 30 minutes at room temperature. After blocking, PVDF membranes were incubated with IRAK4 primary antibody (Abcam) overnight at 4°, the membranes were washed with TBST buffer (2.4 g Tris, 8.8 g NaCl, 1.5 mL Tween 20, pH adjusted to 7.4, constant volume to 1 L) for 30 minutes, incubated with secondary antibody (Abcam) for 2 hours at room temperature, finally incubated with Clarity Western ECL Substrate(BIO-RAD) for 5 minutes for luminescence development, chemiluminescence imaging system (Clinx, chemiScope 6200 Touch) for development and protein mapping photography. The protein map was analyzed by Clinx chemiluminescence analysis software for grayscale values. Using the formula: grayscale correction value=(target protein grayscale value/corresponding internal reference grayscale value)×10^3, the grayscale correction value of each sample was calculated. The degradation rate was calculated by comparing with the grayscale correction value of the control group. Furthermore, DC50 and Dmax values of the compound were obtained by the nonlinear curve fitting with the logarithmic concentration-inhibition rate by GraphPad Prism 7.
(In general: A western blot detects proteins with antibodies after separation by electrophoresis.)

Turning to `COc1cc2nn(C3CCN(CCCN4CCC5(CC4)CCN(C(=O)c4ccc(OC)c(N6CCC(=O)NC6=O)c4)CC5)CC3)cc2cc1NC(=O)c1cccc(C(F)(F)F)n1` [Example 2, N-(2-(1-(3-(9-(3-(2,4-dioxotetrahydropyrimi-din-1 (2H)-yl)-4-methoxyben-zoyl)-3,9-diazaspiro [5.5]undec-3-yl)propyl)piperidin-4-yl)-6-methoxy-2H-indazol-5-yl)-6-(tri-fluoromethyl)-2-pyridine carboxamide], the IC50 at IRAK4 kinase came to 2.9 nM. In experiment [1], this compound had a DC50 of 7.4 nM and a Dmax of 99.1%.

Regarding `COc1ccc(C(=O)N2CCC(OCCN3CCC(n4cc5cc(NC(=O)c6cccc(C(F)(F)F)n6)c(C(C)(C)O)cc5n4)CC3)CC2)cc1N1CCC(=O)NC1=O` [Example 23, N-(2-(1-(2-((1-(3-(2,4-dioxotetrahydro-pyrimidin-1 (2H)-yl)-4-me-thoxybenzoyl)piperidin-4-yl)oxy)ethyl)piperdin-4-yl)-6-(2-hydroxyprop-2-yl)-2H-inda-zol-5-yl)-6-(triflu-oromethyl) pyridinecarbox-amide], half-maximal inhibition at IRAK4 kinase (IC50) required 8.5 nM. In experiment [1], it took 32.4 nM to reach half-maximal degradation (DC50) and the Dmax was 97.6%.

As for `COc1cc2nn(C3CCN(CCCC4CCN(C(=O)c5ccc(OC)c(N6CCC(=O)NC6=O)c5)CC4)CC3)cc2cc1NC(=O)c1cccc(C(F)(F)F)n1` [Example 18, N-(2-(1-(3-(1-(3-(2,4-dioxotetrahydro-pyrimidin-1 (2H)-yl)-4-me-thoxybenzoyl)piperidin-4-yl)propyl)piperidin-4-yl)-6-methoxy-2H-in-dazol-5-yl)-6-(trifluorometh-yl) pyridinecarbox-amide], 9.6 nM corresponded to half-maximal inhibition against IRAK4 kinase (IC50). For the same compound, in experiment [1], the DC50 is 7.1 nM and the Dmax came out at 99.4%.

For `COc1cc2nn([C@H]3CC[C@H](CN4CCC5(CC4)CCN(C(=O)c4ccc(Cl)c(N6CCC(=O)NC6=O)c4)CC5)CC3)cc2cc1NC(=O)c1cccc(C(F)(F)F)n1` [Example 50, N-(2-((1r,4r)-4-((9-(4-chloro-3-(2,4-dioxotetrahydropyrim-idin-1 (2H)-yl)benzoyl)-3,9-diazaspiro[5.5]undec-3-yl)methyl)cyclohexyl)-6-methoxy-2H-inda-zol-5-yl)-6-(tri-fluoromethyl) pyridinecarbox-amide], the IC50 against IRAK4 kinase was 7.2 nM. In experiment [1], this compound displayed a DC50 of 5.6 nM and a Dmax of 97%.

In the case of `COc1cc2nn(C3CCN(CC4CCC5(CC4)CCN(C(=O)c4ccc(F)c(N6CCC(=O)NC6=O)c4)CC5)CC3)cc2cc1NC(=O)c1cccc(C(F)(F)F)n1` [Example 44, N-(2-(1-((3-(3-(2,4-dioxotetrahydro-pyrimidin-1 (2H)-yl)-4-fluoro-benzoyl)-3-azaspiro[5.5]undec-9-yl)methyl)piperidin-4-yl)-6-methoxy-2H-indazol-5-yl)-6-(trifluoromethyl) pyridinecarbox-amide], the IC50 against IRAK4 kinase came out at 52.4 nM. In addition, in experiment [1], the DC50 was 2.3 nM and the Dmax worked out at 98.5%.

In turn, `COc1ccc(C(=O)N2CCC3(CCN(CCCN4CCC(n5cc6cc(NC(=O)c7cccc(C(F)(F)F)n7)c(C(C)(C)O)cc6n5)CC4)CC3)CC2)cc1N1CCC(=O)NC1=O` [Example 11] had an IC50 against IRAK4 kinase of 6 nM. Also, in experiment [1], the DC50 was determined as 27.7 nM and the Dmax is 99.6%.

The compound `CC(C)(O)c1cc2nn(C3CCN(CCC4CC5(CCN(C(=O)c6ccc(Cl)c(N7CCC(=O)NC7=O)c6)CC5)C4)CC3)cc2cc1NC(=O)c1cccc(C(F)(F)F)n1` [Example 27] registered an IC50 against IRAK4 kinase of 13.8 nM. In experiment [1], this compound returned a DC50 of 3.5 nM and a Dmax of 96.3%.

At IRAK4 kinase, `COc1ccc(C(=O)N2CCC(CCN3CCC(n4cc5cc(NC(=O)c6cccc(C(F)(F)F)n6)c(C(C)(C)O)cc5n4)CC3)CC2)cc1N1CCC(=O)NC1=O` [Example 7, N-(2-(1-(2-(1-(3-(2,4-dioxotetrahydropyrimidin-1 (2H)-yl)-4-methoxybenzoyl)piperidin-4-yl)ethyl)piperidin-4-yl)-6-(2-hydroxyprop-2-yl)-2H-indazol-5-yl)-6-(trifluoromethyl) pyridinecarboxamide] displayed an IC50 of 5.9 nM. In experiment [1], it took 9.4 nM to reach half-maximal degradation (DC50) and the Dmax is 95.5%.

As to `O=C1CCN(c2cc(C(=O)N3CCC4(CCC(CN5CCC(n6cc7cc(NC(=O)c8cccc(C(F)(F)F)n8)c(OC(F)F)cc7n6)CC5)CC4)CC3)ccc2Cl)C(=O)N1` [Example 66], it took 21.4 nM to reach half-maximal inhibition against IRAK4 kinase (IC50). In addition, in experiment [1], the DC50 was 16.1 nM and the Dmax came to 95.3%.

As for `COc1cc2nn(C3CCN(CCC4CCC5(CC4)CCN(C(=O)c4cccc(N6CCC(=O)NC6=O)c4)CC5)CC3)cc2cc1NC(=O)c1cccc(C(F)(F)F)n1` [Example 47, N-(2-(1-(2-(3-(3-(2,4-dioxotetrahydro-pyrimidin-1 (2H)-yl)benzoyl)-3-azaspiro[5.5]undec-9-yl)ethyl)piperidin-4-yl)-6-methoxy-2H-in-dazol-5-yl)-6-(tri-fluoromethyl) pyridinecarbox-amide], the IC50 on IRAK4 kinase worked out at 34.2 nM. In experiment [1], this compound showed a DC50 of 5.4 nM and a Dmax of 98.3%.

Consider `CCN(C1CCC2(CC1)CCN(C(=O)c1ccc(Cl)c(N3CCC(=O)NC3=O)c1)CC2)[C@H]1CC[C@H](n2cc3cc(NC(=O)c4cccc(C(F)(F)F)n4)c(OC)cc3n2)CC1` [Example 60], for which the IC50 at IRAK4 kinase was found to be 6.43 nM. In experiment [1], this compound showed a DC50 of 5.1 nM and a Dmax of 93.2%.

The compound `COc1ccc(C(=O)N2CCC(CCCN3CCC(n4cc5cc(NC(=O)c6cccc(C(F)(F)F)n6)c(C(C)(C)O)cc5n4)CC3)CC2)cc1N1CCC(=O)NC1=O` [Example 22, N-(2-(1-(3-(1-(3-(2,4-dioxotetrahydro-pyrimidin-1 (2H)-yl)-4-me-thoxybenzoyl)piperidin-4-yl)propyl)piperidin-4-yl)-6-(2-hydroxyprop-2-yl)-2H-inda-zol-5-yl)-6-(trifluoromethyl) pyridinecarbox-amide] returned an IC50 against IRAK4 kinase of 11.7 nM. In experiment [1], this compound came in with a DC50 of 16.4 nM and a Dmax of 94.3%.

Take `COc1cc2nn([C@H]3CC[C@H](COCCC4CCN(C(=O)c5ccc(Cl)c(N6CCC(=O)NC6=O)c5)CC4)CC3)cc2cc1NC(=O)c1cccc(C(F)(F)F)n1` [Example 64, N-(2-((1r,4r)-4-((2-(1-(4-chloro-3-(2,4-dioxotetrahydro-pyrimidin-1 (2H)-yl)benzoyl)piperidin-4-yl)ethoxy)methyl)cyclohexyl)-6-methoxy-2H-indazol-5-yl)-6-(trifluoro-methyl) pyridinecarbox-amide]: half-maximal inhibition against IRAK4 kinase (IC50) was put at 48 nM. In experiment [1], this compound returned a DC50 of 13.9 nM and a Dmax of 95.6%.

By IC50 is commonly meant the point on the concentration scale where inhibition reaches its midpoint. The low end stands for higher potency, the high end for lower potency. In general, DC50 refers to the concentration giving 50% degradation. High values mean a less potent degrader, low ones a more potent degrader. The Dmax is the largest share of the target that was removed. A high value points to deep degradation.
